Data from patent US9255295B2, “Method for evaluating the sensitizing potential of a test compound” (IMMUNOSEARCH, priority 2010, dated 2016).

Assays:
[1] = system: genes specific for sensitization (BRAK, CTSS, DAPK2, FABP4, HSP27, IL18, HSP90, IL1R2, TPSAB1, CXCR1, DEFB1, DHFR, EHF, IVL, KRT4, MELANA, NGAL, PDZK1IP1, PI3 …); experiment: Expression of the other (non-ARE) sensitization-specific genes in EPISKIN reconstructed skin (quantitative RT-PCR); type: cell-based, human
[2] = system: ARE gene family (AKR1B10, AKR1C1, AKR1C2, CYP1B1, FTH1P, FTL, G6PD, GCLM, NQO2, SLC7A11, TXNRD1, UGT1A1, UGT1A9, YWHAZ, CD36, CYP1A1, GCLC, HMOX1, NQO1, PSME2 …)
EPISKIN model [3] = system: EPISKIN model
EPISKIN model [4] = experiment: Sensitizing power: sensitizing potential retested at successive dilutions in the EPISKIN model

CC(O)C(=O)O (stereo not drawn) [Ac Lactique]
SENS >1.3 (number of genes) [1]: 1
AHR NUMBER OF GENES grade [2]: 0 (key: If the expression is greater than 1.3 compared to the control, a grade of 11s given; if this expression is lower, the grade is 0)
AHR expression [2]: 0.8
AKR1B10 NUMBER OF GENES grade [2]: 0 (key: If the expression is greater than 1.3 compared to the control, a grade of 11s given; if this expression is lower, the grade is 0)
AKR1C1 NUMBER OF GENES grade [2]: 0 (key: If the expression is greater than 1.3 compared to the control, a grade of 11s given; if this expression is lower, the grade is 0)
AKR1C2 NUMBER OF GENES grade [2]: 0 (key: If the expression is greater than 1.3 compared to the control, a grade of 11s given; if this expression is lower, the grade is 0)
ARE >1.3 (number of genes) [2]: 0
CYP1B1 NUMBER OF GENES grade [2]: 0 (key: If the expression is greater than 1.3 compared to the control, a grade of 11s given; if this expression is lower, the grade is 0)
FTH1P NUMBER OF GENES grade [2]: 0 (key: If the expression is greater than 1.3 compared to the control, a grade of 11s given; if this expression is lower, the grade is 0)
FTL NUMBER OF GENES grade [2]: 0 (key: If the expression is greater than 1.3 compared to the control, a grade of 11s given; if this expression is lower, the grade is 0)
GCLC NUMBER OF GENES grade [2]: 0 (key: If the expression is greater than 1.3 compared to the control, a grade of 11s given; if this expression is lower, the grade is 0)
GCLM NUMBER OF GENES grade [2]: 0 (key: If the expression is greater than 1.3 compared to the control, a grade of 11s given; if this expression is lower, the grade is 0)
GCLM expression [2]: 1.1
HMOX1 NUMBER OF GENES grade [2]: 0 (key: If the expression is greater than 1.3 compared to the control, a grade of 11s given; if this expression is lower, the grade is 0)
NQO1 NUMBER OF GENES grade [2]: 0 (key: If the expression is greater than 1.3 compared to the control, a grade of 11s given; if this expression is lower, the grade is 0)
NQO2 NUMBER OF GENES grade [2]: 0 (key: If the expression is greater than 1.3 compared to the control, a grade of 11s given; if this expression is lower, the grade is 0)
NQO2 expression [2]: 1.2
SLC7A11 NUMBER OF GENES grade [2]: 0 (key: If the expression is greater than 1.3 compared to the control, a grade of 11s given; if this expression is lower, the grade is 0)
SLC7A11 expression [2]: 1.0
TOTAL ARE (number of genes) [2]: 0
TXNRD1 NUMBER OF GENES grade [2]: 0 (key: If the expression is greater than 1.3 compared to the control, a grade of 11s given; if this expression is lower, the grade is 0)
UGT1A1 NUMBER OF GENES grade [2]: 0 (key: If the expression is greater than 1.3 compared to the control, a grade of 11s given; if this expression is lower, the grade is 0)
UGT1A1 expression [2]: 1.3
UGT1A9 NUMBER OF GENES grade [2]: 0 (key: If the expression is greater than 1.3 compared to the control, a grade of 11s given; if this expression is lower, the grade is 0)
UGT1A9 expression [2]: 0.8
sensitizing potential (conclusion) (EPISKIN model [3]): Non-sensitizing
NUMBER OF GENES overexpressed, sum column 8 (EPISKIN model [4]): 0
